In US20150126464A1, “THERAPEUTIC DRUG AND THERAPEUTIC METHOD FOR NEUROLOGICAL DISEASES INCLUDING ALZHEIMER'S DISEASE ASSOCIATED WITH 1,25D3-MARRS” (priority 2013, published 2015):

Key:
[1] = test system: rat cortical neurons (SD E18); test: Measurement of axon density in cortical neurons with or without 1,25D3-MARRS knockdown; settings: 1 μM, 4 days, vs vehicle
Description: siRNAs were transfected into rat cortical neurons (SD E18) according to the manufacturer's protocol for nucleofection (Lonza, Bazel, Switzerland). […] Two days after the transfection, the cells were fixed and double-immunostained with a monoclonal antibody against a neuron marker MAP2a/2b (1:500, NeoMarker, Fremont, Calif., USA) and Ab099 clone, a specific antibody for 1,25D3-MARRS (1:500, provided by Dr. Nemere).
Twelve to fourteen images were captured. The lengths of the pNF-H-positive axons were measured using an image analyzer Neurocyte (Kurabo), which automatically traces and measures neurite length without measuring the cell bodies. The sum of the axon lengths was divided by the number of MAP2-positive neurons.
1,25D3-MARRS was knocked down using siRNA transfection. […] Two days after the siRNA transfection, denosomin (1 μM) or a vehicle solution was applied to the cells. Further, after 4-day incubation, the cells were double-immunostained for pNF-H and MAP2 to measure the axonal length per neuron.

normal mice [2] = test: Location recognition test in normal mice; format: in vivo, mouse; settings: diosgenin i.p. 7 days, 48 hours training-test interval
Description: Diosgenin (Wako Pure Chemical Industries, Ltd., Osaka, Japan) was dissolved in ethanol at 10 times the final concentration to give a stock solution, and the stock solution was diluted in a 5% aqueous solution of glucose to the final concentration. The diosgenin solution was intraperitoneally administered to normal mice (ddY mice, male, 6 weeks old) once a day (10 μmol/kg/day) for 5 or 6 days. One hour after the last administration, each mouse was housed in a separate open-field box made of polyvinyl chloride (33 cm×28 cm; height: 26.5 cm), habituated to the environment for 10 minutes, and used in the test.
Intraperitoneal administration to the mice of Example 2 and Comparative Example 3 was performed for 7 days. One hour after the last administration, a location recognition test was performed to evaluate the spatial recognition memory. Testing was carried out in a dimly illuminated room (100 lux). The test was performed as described in Tohda, C. et al., Br J Pharmacol. 157, 1427-1440, 2009, written by the inventor and others, except that the time interval between a training session and a test session was 48 hours. As a locomotion index, the path of each mouse was tracked using a digital camera system. The distance each mouse traveled during the 10 minutes was analyzed as locomotion activity with EthoVision 3.0 (Noldus, Wageningen, The Netherlands).

normal mice [3] = test: Object recognition memory under continuous administration of 1,25D3-MARRS neutralizing antibody; format: in vivo, mouse; settings: normal ddY mice, diosgenin i.p.
Description: To neutralize the 1,25D3-MARRS function of normal mice (ddY mice, male, 6 weeks old), a polyclonal antibody specific to 1,25D3-MARRS, i.e., Ab099 clone, was intraventricularly administered in a continuous manner. Ab099 diluted in ACSF (artificial cerebrospinal fluid) was charged into a micro osmotic pump (model: 1007D, Alzet, Cupertino, Calif., USA) and a brain infusion kit 3 (Alzet). The dilution rate of Ab099 was determined depending on the cerebrospinal fluid (CSF) volume and the inflow velocity so that the concentration would be sufficient for Ab099 to act as a neutralizing antibody in CSF. Using stereotaxic apparatus, a brain infusion cannula (brain infusion kit) was inserted into the right ventricle of each mouse anesthetized beforehand (anterior/posterior: −0.22 mm posterior from bregma, medial/lateral: +1.0 mm, dorsal/ventral: −2.5 mm below surface). The entire cannula insertion site was covered with Loctite 454 (Alzet). The pump was subcutaneously implanted in the back of the mouse. The incision in the skin was sutured.
After the start of continuous antibody administration, the intraperitoneal administration of diosgenin was initiated. After 5-day administration of diosgenin, the object recognition memory training was initiated. The next day, the last administration of diosgenin was performed. The test session was initiated 48 hours after the start of the training session. […]

1,25D3-MARRS = molecular target: T1, 1,25D3-MARRS (Mus musculus, UniProt P27773); test: Identification of the target protein for diosgenin (thermolysin proteolysis of lysate, LC/MS/MS); format: binding; settings: mouse cortical neuron lysate, band thicker than in vehicle-treated lysate
T1 construct: endogenous in cells; host or cells: mouse cortical neuron primary culture (ddY, E14), cell lysate
T1 sequence (P27773 25-505): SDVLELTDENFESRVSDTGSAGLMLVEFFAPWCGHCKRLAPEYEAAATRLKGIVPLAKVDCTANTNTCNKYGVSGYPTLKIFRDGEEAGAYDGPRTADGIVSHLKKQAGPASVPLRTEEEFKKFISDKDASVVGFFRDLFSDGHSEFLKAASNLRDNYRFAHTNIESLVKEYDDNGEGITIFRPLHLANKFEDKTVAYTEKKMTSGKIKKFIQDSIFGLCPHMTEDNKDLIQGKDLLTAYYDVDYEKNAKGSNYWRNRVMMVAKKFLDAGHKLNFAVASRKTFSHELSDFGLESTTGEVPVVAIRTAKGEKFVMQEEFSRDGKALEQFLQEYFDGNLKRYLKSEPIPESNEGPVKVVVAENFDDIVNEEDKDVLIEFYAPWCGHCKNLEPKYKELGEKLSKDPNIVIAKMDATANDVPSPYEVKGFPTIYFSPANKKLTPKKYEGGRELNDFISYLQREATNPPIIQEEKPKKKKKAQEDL
Description: A mouse cortical neuron primary culture (ddY, E14) was maintained for 24 hours without any drug treatment. The cells were lysed with M-PER (Thermo Scientific) supplemented with protease and phosphatase inhibitors. After centrifugation (20,000×g) for 15 minutes, the protein concentration of the lysates was determined using Quick Start (Bio-Rad Laboratories, Hercules, Calif., USA). The cell lysate (5.6 μg each) was added to 2 μL of a vehicle solution of 10 mM diosgenin and incubated at 4° C. for 30 minutes. The mixture was proteolyzed using 7.5 μg of thermolysin in a reaction buffer [50 mM Tris-HCl (pH 8.0), 50 mM NaCl, and 10 mM CaCl2] at room temperature for 10 minutes. To stop the proteolysis, 0.5 M EDTA (pH 8.0) was added to each sample at a ratio of 1:10. The samples were then mixed well and placed on ice. The reaction samples were electrophoresed using a 5 to 20% real gel plate (Bio Craft, Tokyo, Japan). The separated proteins were stained using a negative gel stain MS kit (Wako). The bands in the diosgenin-treated lysate that were thicker than those in the vehicle-treated lysate were cut out and prepared for mass spectrometry analysis. After alkylation using iodoacetamide and in-gel digestion by trypsin, the supernatants were analyzed by nano-LC/MS/MS using LTQ Orbitrap XL (ThermoFisher). […]

SMILES: C[C@@H]1CC[C@@]2(OC1)O[C@H]1C[C@H]3[C@@H]4CC=C5C[C@@H](O)CC[C@]5(C)[C@H]4CC[C@]3(C)[C@H]1[C@@H]2C [diosgenin]
- density of pNF-H-positive axons per MAP2-positive neuron, control groups ([1]; control (no 1,25D3-MARRS knockdown) cortical neurons): significantly increased
- density of pNF-H-positive axons per MAP2-positive neuron, 1,25D3-MARRS knockdown groups ([1]; neurons transfected with siRNA for 1,25D3-MARRS (400 nM)): did not show any difference
- frequency of exploratory behavior for the object moved to a new location (normal mice [2]): > 50%
- preferential index, mice treated with ACSF and diosgenin (normal mice [3]; ACSF intraventricular, test 48 hours after training): significantly improved
- memory improvement attributable to diosgenin in mice given 1,25D3-MARRS neutralizing antibody (normal mice [3]; Ab099 clone intraventricular continuous): completely offset
- direct target protein identified (1,25D3-MARRS): direct target protein of diosgenin was 1,25D3-MARRS
